# Tests used:
# [1] = biological target: T1, Brd4 bromodomain 1 (BRD4(1)) (Homo sapiens, UniProt O60885); assay: Inhibition of tetra-acetylated histone H4 binding to Brd4 bromodomain 1, measured by FRET (HTRF); set-up: made in house; host or cells: E. coli BL21(DE3); conditions: 2 h at room temperature
# How it was run: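 N-terminally His-tagged bromodomain (200 nM), expressed in E. coli and purified by Ni affinity and size exclusion, was incubated with biotinylated tetra-acetylated H4 peptide (25-50 nM), Eu-cryptate streptavidin and XL665 anti-His in HEPES pH 7.4 buffer with 0.2% DMSO. Reactions ran 2 h at room temperature. IC50 came from the 665/620 nm fluorescence decrease.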
# [2] = test system: c-myc in Human AML MV4-11 cells; assay: Inhibition of cMYC expression (mRNA, real-time PCR) in MV4-11 cells; format: cell-based; conditions: 3 h treatment, cMYC mRNA by real-time PCR
# How it was run: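 MV4-11 cells in IMDM with 10% FBS were treated with increasing compound concentrations (DMSO 0.1%) for 3 h at 37 °C, in triplicate. Isolated mRNA was quantified by one-step TaqMan RT-qPCR, cMYC Ct normalized to cyclophilin, and fold expression given relative to DMSO control.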
# MV4-11 cells = assay: In vivo efficacy in athymic nude mouse acute myeloid leukemia xenograft model using MV4-11 cells; conditions: athymic nude mouse AML xenograft (MV4-11), oral dosing
# Description: MV4-11 cells (ATCC) were grown under standard cell culture conditions and (NCr) nu/nu fisol strain of female mice age 6-7 weeks were injected with 5×10^6 cells/animal in 100 μL PBS+100 μL Matrigel in the lower left abdominal flank. By approximately day 18-21 after MV4-11 cells injection, mice were randomized based on tumor volume (L×W×H)/2) of average ˜100-300 mm^3. Mice were dosed orally with compound at 5 to 120 mg/kg b.i.d and/or q.d. on a continuous dosing schedule and at 2.5 to 85 mg/kg q.d. on a 5 day on 2 day off, 100 mg/kg q.d. on a 4 day on and 3 day off, 135 mg/kg q.d. on a 3 day on and 4 day off, 180 mg/kg on a 2 day on and 5 day off and 240 mg/kg on a 1 day on and 6 days off dosing schedules in EA006 formulation at 10 mL/kg body weight dose volume. Tumor measurements were taken with electronic micro calipers and body weights measured on alternate days beginning from dosing period. The average tumor volumes, percent Tumor Growth Inhibition (TGI) and % change in body weights were compared relative to Vehicle control animals. The means, statistical analysis and the comparison between groups were calculated using Student's t-test in Excel.
# Human AML MV-4-11 cells = assay: Inhibition of cell proliferation in MV4-11 cells (CellTiter Aqueous One); format: cell-based; conditions: MV4-11, 72 h
# How it was run: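 MV4-11 cells, 5×10^4 per well in IMDM with 10% FBS, were exposed to increasing compound concentrations or 0.1% DMSO for 72 h at 37 °C in triplicate. Viability was read by MTS (CellTiter Aqueous One) absorbance at 490 nm after 3-4 h. IC50 was derived from background-corrected signal relative to DMSO.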
# hIL-17 mRNA = assay: Inhibition of hIL-17 mRNA transcription in OKT3-stimulated peripheral blood mononuclear cells; format: cell-based; conditions: human PBMC, OKT3 stimulation 6 h, read-out: IL-17 Activity
# Description: Human peripheral blood mononuclear cells were plated (2.0×10^5 cells per well) in a 96-well plate in 45 μL OpTimizer T Cell expansion media (Life Technologies) containing 20 ng/ml IL-2 and penicillin/streptomycin. The cells were treated with increasing concentrations of the test compound or DMSO (0.1%), and incubated at 37° C., 5% CO2 for 1 h before addition of 10× stock OKT3 antibody at 10 ug/ml in media. Triplicate wells were used for each concentration. Cells were incubated at 37° C., 5% CO2 for 6 h before the cells were harvested. At time of harvest, cells were pelleted by centrifugation at 800 rpm for 5 min. Cells were harvested using the mRNA Catcher PLUS kit according to manufacturer's instructions. The eluted mRNA was then used in a one-step quantitative real-time PCR reaction, using components of the RNA UltraSense™ One-Step Kit (Life Technologies) together with Applied Biosystems TaqMan® primer-probes for hIL-17 and Cyclophilin. Real-time PCR plates were run on a ViiA™7 real time PCR machine (Applied Biosystems), data was analyzed, normalizing the Ct values for hIL-17 to an internal control, prior to determining the fold induction of each unknown sample, relative to the control.
# hIL-6 mRNA = assay: Inhibition of hIL-6 mRNA transcription in LPS-stimulated U937 macrophages; format: cell-based, Human; conditions: Homo sapiens, U-937, PMA-differentiated U937 cells, 1 h pretreatment, LPS 3 h, read-out: IL-6 activity
# How it was run: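 PMA-differentiated U937 macrophages (60 ng/mL PMA, 3 days) pretreated 1 h with compound in 0.1% DMSO, then stimulated with 1 ug/mL E. coli LPS for 3 h at 37° C. IL-6 mRNA quantified by one-step TaqMan qRT-PCR, normalized to cyclophilin; fold expression relative to control, triplicate wells.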
# [3] = biological target: T1, Brd4 bromodomain 1 (BRD4(1)); assay: Inhibition of tetra-acetylated histone H4 binding to Brd4 bromodomain 1, measured by FRET (HTRF); set-up: to Brd4 bromodomain 1 (BRD4(1) as Measured by FRET); made in house; host or cells: E. coli BL21(DE3); conditions: 2 h at room temperature
# Description: Proteins were cloned and overexpressed with a N-terminal 6×His tag, then purified by nickel affinity followed by size exclusion chromatography. Briefly, E. coli BL21(DE3) cells were transformed with a recombinant expression vector encoding N-terminally Nickel affinity tagged bromodomains from Brd2, Brd3, Brd4. Cell cultures were incubated at 37° C. with shaking to the appropriate density and induced overnight with IPTG. The supernatant of lysed cells was loaded onto Ni-IDA column for purification. Eluted protein was pooled, concentrated and further purified by size exclusion chromatography. Fractions representing monomeric protein were pooled, concentrated, aliquoted, and frozen at −80° C. for use in subsequent experiments.
# Binding of tetra-acetylated histone H4 and BET bromodomains was confirmed by a Homogenous Time Resolved Fluorescence Resonance Energy Transfer (HTRF®) method. […] After a 2 h incubation at room temperature, fluorescence was measured at 665 and 620 nm with a SynergyH4 plate reader (Biotek). The binding inhibitory activity was shown by a decrease in 665 nm relative to 620 nm fluorescence. IC50 values were determined from a dose response curve.
# hApoA-1 mRNA = assay: Up-regulation of hApoA-1 mRNA transcription in Huh7 cells; format: cell-based; conditions: Homo sapiens, Huh-7, EC170 of hApoA-1 mRNA up-regulation, 48 h, read-out: ApoA-1 activity
# Description: Huh7 cells (2.5×10^5 per well) were plated in a 96-well plate using 100 μL DMEM per well, (Gibco DMEM supplemented with penicillin/streptomycin and 10% FBS), 72 h before the addition of the compound. The cells are treated with increasing concentrations of the compound or DMSO (0.1%), and incubated at 37° C., 5% CO2 for 48 h. Spent media was removed from the Huh-7 cells and placed on ice for immediate use with the “LDH cytotoxicity assay Kit II” from Abcam. The cells remaining in the plate were rinsed with 100 μL PBS. Cells were harvested using the mRNA Catcher PLUS kit according to manufacturer's instructions. The eluted mRNA was then used in a one-step quantitative real-time PCR reaction, using components of the RNA UltraSense™ One-Step Kit (Life Technologies) together with Applied Biosystems TaqMan® primer-probes for hApoA-1 and Cyclophilin. Real-time PCR plates were run on a ViiA™7 real time PCR machine (Applied Biosystems), data was analyzed, normalizing the Ct values for hApoA-1 to an internal control, prior to determining the fold induction of each unknown sample, relative to the control.
smiles,measurement,setting,value
"Cc1noc(C)c1-c1cc(-c2c(C)nn(C)c2C)c2nc[nH]c2c1 [Example Compound 9, 3,5-dimethyl-4-(4-(1,3,5-trimethyl-1H-pyrazol-4-yl)-1H-benzo[d]imidazol-6-yl)isoxazole]",IC50,[1],≤ 0.3 µM
same,IC50,[2],0.3 to 3 µM
same,In vivo activity,MV4-11 cells,Active
same,IC50,Human AML MV-4-11 cells,0.3 to 3 µM
same,IC50,hIL-17 mRNA,≤ 0.3 µM
same,IC50,hIL-6 mRNA,≤ 0.3 µM
"Cc1ncccc1-c1cc(-c2c(C)noc2C)cc2[nH]cnc12 [Example Compound 27, 3,5-dimethyl-4-(4-(2-methylpyridin-3-yl)-1H-benzo[d]imidazol-6-yl)isoxazole]",IC50,[1],≤ 0.3 µM
same,IC50,[2],0.3 to 3 µM
same,In vivo activity,MV4-11 cells,Active
same,IC50,Human AML MV-4-11 cells,0.3 to 3 µM
same,IC50,hIL-17 mRNA,≤ 0.3 µM
same,IC50,hIL-6 mRNA,≤ 0.3 µM
Cc1ncccc1-c1cc(-c2c(C)noc2C)cc2cn[nH]c12 [Example Compound 70],IC50,[3],≤ 0.3 µM
same,IC50,[2],0.3 to 3 µM
same,IC50,Human AML MV-4-11 cells,0.3 to 3 µM
same,IC50,hIL-6 mRNA,0.3 to 3 µM
"Cc1nc2c(-c3c(C)cncc3C)cc(-c3c(C)noc3C)cc2[nH]1 [Example Compound 97, 4-(4-(3,5-dimethyl-pyridin-4-yl)-2-methyl-1H-benzo[d]imidazol-6-yl)-3,5-dimethyl isoxazole]",IC50,[1],≤ 0.3 µM
same,EC170,hApoA-1 mRNA,≤ 0.3 µM
same,IC50,[2],0.3 to 3 µM
same,IC50,Human AML MV-4-11 cells,0.3 to 3 µM
same,IC50,hIL-17 mRNA,0.3 to 3 µM
same,IC50,hIL-6 mRNA,≤ 0.3 µM

# — US9999616B2 (ZENITH EPIGENETICS LTD., priority 2013, dated 2018)
